Assay results published in the NIST ThermoML archive (doi:10.1016/j.jct.2014.07.026).

Assay: mn = molality of the nth substance listed, in mol/kg
Conditions: 100 kPa, Liquid; for mass density: Vibrating tube method; for speed of sound: Frequency=2 MHz, Linear variable-path acoustic interferometer

CCCCn1cc[n+](C)c1.NCC(=O)[O-] [1-butyl-3-methylimidazolium glycinate] + O
Conditions | mass density [kg/m3] | speed of sound [m/s]
293.15 K, m1 = 0.03911 | 999.516 | –
293.15 K, m1 = 0.05766 | 1000.13 | –
293.15 K, m1 = 0.07571 | 1000.71 | –
293.15 K, m1 = 0.09405 | 1001.28 | –
293.15 K, m1 = 0.1177 | 1002.03 | –
293.15 K, m1 = 0.1634 | 1003.42 | –
293.15 K, m1 = 0.2013 | 1004.58 | –
293.15 K, m1 = 0.2535 | 1006.13 | –
293.15 K, m1 = 0.2905 | 1007.2 | –
293.15 K, m1 = 0.3496 | 1008.89 | –
293.15 K, m1 = 0.4089 | 1010.57 | –
293.15 K, m1 = 0.4607 | 1012 | –
293.15 K, m1 = 0.5188 | 1013.58 | –
298.15 K, m1 = 0.03911 | 998.332 | –
298.15 K, m1 = 0.05112 | – | 1505.2
298.15 K, m1 = 0.05766 | 998.92 | –
298.15 K, m1 = 0.07571 | 999.491 | –
298.15 K, m1 = 0.09405 | 1000.03 | –
298.15 K, m1 = 0.1057 | – | 1512.8
298.15 K, m1 = 0.1177 | 1000.77 | –
298.15 K, m1 = 0.1479 | – | 1518.7
298.15 K, m1 = 0.1634 | 1002.14 | –
298.15 K, m1 = 0.1966 | – | 1525.4
298.15 K, m1 = 0.2013 | 1003.25 | –
298.15 K, m1 = 0.2458 | – | 1531.5
298.15 K, m1 = 0.2535 | 1004.78 | –
298.15 K, m1 = 0.2904 | – | 1537.8
298.15 K, m1 = 0.2905 | 1005.83 | –
298.15 K, m1 = 0.3486 | – | 1545.1
298.15 K, m1 = 0.3496 | 1007.53 | –
298.15 K, m1 = 0.4012 | – | 1551.1
298.15 K, m1 = 0.4089 | 1009.11 | –
298.15 K, m1 = 0.4523 | – | 1557.8
298.15 K, m1 = 0.4607 | 1010.51 | –
298.15 K, m1 = 0.5188 | 1012.11 | –
298.15 K, m1 = 0.5271 | – | 1566.9
303.15 K, m1 = 0.03911 | 996.915 | –
303.15 K, m1 = 0.05766 | 997.485 | –
303.15 K, m1 = 0.07571 | 998.049 | –
303.15 K, m1 = 0.09405 | 998.596 | –
303.15 K, m1 = 0.1177 | 999.306 | –
303.15 K, m1 = 0.1634 | 1000.64 | –
303.15 K, m1 = 0.2013 | 1001.73 | –
303.15 K, m1 = 0.2535 | 1003.2 | –
303.15 K, m1 = 0.2905 | 1004.25 | –
303.15 K, m1 = 0.3496 | 1005.87 | –
303.15 K, m1 = 0.4089 | 1007.48 | –
303.15 K, m1 = 0.4607 | 1008.89 | –
303.15 K, m1 = 0.5188 | 1010.43 | –
308.15 K, m1 = 0.03804 | 995.245 | –
308.15 K, m1 = 0.05959 | 995.908 | –
308.15 K, m1 = 0.07881 | 996.479 | –
308.15 K, m1 = 0.09916 | 997.101 | –
308.15 K, m1 = 0.1199 | 997.708 | –
308.15 K, m1 = 0.1512 | 998.623 | –
308.15 K, m1 = 0.206 | 1000.16 | –
308.15 K, m1 = 0.2462 | 1001.31 | –
308.15 K, m1 = 0.2873 | 1002.43 | –
308.15 K, m1 = 0.359 | 1004.36 | –
308.15 K, m1 = 0.3954 | 1005.3 | –
308.15 K, m1 = 0.4498 | 1006.76 | –
308.15 K, m1 = 0.5188 | 1008.59 | –
313.15 K, m1 = 0.03949 | 993.444 | –
313.15 K, m1 = 0.05959 | 994.046 | –
313.15 K, m1 = 0.07881 | 994.62 | –
313.15 K, m1 = 0.09916 | 995.217 | –
313.15 K, m1 = 0.1199 | 995.816 | –
313.15 K, m1 = 0.1512 | 996.706 | –
313.15 K, m1 = 0.206 | 998.24 | –
313.15 K, m1 = 0.2462 | 999.361 | –
313.15 K, m1 = 0.2873 | 1000.45 | –
313.15 K, m1 = 0.359 | 1002.39 | –
313.15 K, m1 = 0.3954 | 1003.31 | –
313.15 K, m1 = 0.4498 | 1004.72 | –
313.15 K, m1 = 0.5188 | 1006.52 | –

CCCCn1cc[n+](C)c1.C[C@H](N)C(=O)[O-] [3-butyl-1-methyl-1H-imidazolium L-alaninate] + O
Conditions | mass density [kg/m3] | speed of sound [m/s]
293.15 K, m1 = 0.03078 | 999.145 | –
293.15 K, m1 = 0.04697 | 999.63 | –
293.15 K, m1 = 0.06646 | 1000.21 | –
293.15 K, m1 = 0.08363 | 1000.72 | –
293.15 K, m1 = 0.0978 | 1001.14 | –
293.15 K, m1 = 0.1393 | 1002.34 | –
293.15 K, m1 = 0.1674 | 1003.15 | –
293.15 K, m1 = 0.2011 | 1004.09 | –
293.15 K, m1 = 0.2513 | 1005.48 | –
293.15 K, m1 = 0.2946 | 1006.67 | –
293.15 K, m1 = 0.3312 | 1007.64 | –
293.15 K, m1 = 0.383 | 1009.05 | –
293.15 K, m1 = 0.4337 | 1010.33 | –
298.15 K, m1 = 0.03078 | 997.956 | –
298.15 K, m1 = 0.04697 | 998.423 | –
298.15 K, m1 = 0.06346 | – | 1507.5
298.15 K, m1 = 0.06646 | 998.985 | –
298.15 K, m1 = 0.08363 | 999.477 | –
298.15 K, m1 = 0.0978 | 999.884 | –
298.15 K, m1 = 0.1393 | 1001.05 | –
298.15 K, m1 = 0.1428 | – | 1519.5
298.15 K, m1 = 0.1674 | 1001.83 | –
298.15 K, m1 = 0.1848 | – | 1526.1
298.15 K, m1 = 0.2011 | 1002.75 | –
298.15 K, m1 = 0.2434 | – | 1534.3
298.15 K, m1 = 0.2513 | 1004.09 | –
298.15 K, m1 = 0.2946 | 1005.25 | –
298.15 K, m1 = 0.2968 | – | 1541.6
298.15 K, m1 = 0.3312 | 1006.21 | –
298.15 K, m1 = 0.3455 | – | 1549.5
298.15 K, m1 = 0.383 | 1007.55 | –
298.15 K, m1 = 0.3934 | – | 1555.4
298.15 K, m1 = 0.4337 | 1008.88 | –
298.15 K, m1 = 0.4399 | – | 1561.4
298.15 K, m1 = 0.4872 | – | 1567.8
298.15 K, m1 = 0.546 | – | 1576.5
303.15 K, m1 = 0.03078 | 996.541 | –
303.15 K, m1 = 0.04697 | 996.999 | –
303.15 K, m1 = 0.06646 | 997.554 | –
303.15 K, m1 = 0.08363 | 998.04 | –
303.15 K, m1 = 0.0978 | 998.438 | –
303.15 K, m1 = 0.1393 | 999.57 | –
303.15 K, m1 = 0.1674 | 1000.34 | –
303.15 K, m1 = 0.2011 | 1001.23 | –
303.15 K, m1 = 0.2513 | 1002.54 | –
303.15 K, m1 = 0.2946 | 1003.67 | –
303.15 K, m1 = 0.3312 | 1004.62 | –
303.15 K, m1 = 0.383 | 1005.95 | –
303.15 K, m1 = 0.4337 | 1007.21 | –
308.15 K, m1 = 0.03124 | 994.926 | –
308.15 K, m1 = 0.05075 | 995.469 | –
308.15 K, m1 = 0.06032 | 995.732 | –
308.15 K, m1 = 0.08315 | 996.374 | –
308.15 K, m1 = 0.09789 | 996.775 | –
308.15 K, m1 = 0.1399 | 997.892 | –
308.15 K, m1 = 0.181 | 998.999 | –
308.15 K, m1 = 0.2108 | 999.761 | –
308.15 K, m1 = 0.2555 | 1000.94 | –
308.15 K, m1 = 0.2996 | 1002.03 | –
308.15 K, m1 = 0.3385 | 1003.03 | –
308.15 K, m1 = 0.3814 | 1004.06 | –
308.15 K, m1 = 0.4337 | 1005.37 | –
313.15 K, m1 = 0.03124 | 993.094 | –
313.15 K, m1 = 0.05075 | 993.624 | –
313.15 K, m1 = 0.06032 | 993.886 | –
313.15 K, m1 = 0.08315 | 994.504 | –
313.15 K, m1 = 0.09789 | 994.894 | –
313.15 K, m1 = 0.1399 | 996.012 | –
313.15 K, m1 = 0.181 | 997.076 | –
313.15 K, m1 = 0.2108 | 997.849 | –
313.15 K, m1 = 0.2555 | 998.984 | –
313.15 K, m1 = 0.2996 | 1000.07 | –
313.15 K, m1 = 0.3385 | 1001.05 | –
313.15 K, m1 = 0.3814 | 1002.07 | –
313.15 K, m1 = 0.4337 | 1003.34 | –
